According to patent EP0565593B1, “REDUCING PESTICIDAL INTERACTIONS IN CROPS” (priority 1990, dated 1992):
Like-named read-outs stand apart in the source and are kept apart here.

Columns and labels:
Shattercane (SHCA) = format: in vivo
Velvetleaf (VELE) [1] = format: in vivo, Abutilon theophrasti
Corn [2] = test system: Corn
Giant foxtail (GIFT) = assay: whole plant or invertebrate; format: in vivo
Corn [3] = test system: Corn; remark: listed apart in the source
Velvetleaf (VELE) [4] = assay: whole plant or invertebrate; format: in vivo, Abutilon theophrasti
[5] = […], observed 8 days later (Table 32)
[6] = […], observed 8 days later (Table 33)
[7] = […], PPI, 14 days after PPI (Table 34)
[8] = […], observed 9 days later (Table 29)
[9] = […], observed 9 days later (Table 30)
[10] = […], PPI, 13 days after PPI (Table 31)
[11] = […], observed 7 days after POE (Table 35)
[12] = […], observed 7 days after POE (Table 36)
[13] = Table 50, Biocide No. 8 alone 8.96 kg/Ha PPI, no herbicide, no antidote
[14] = Table 51, Biocide No. 8 alone 8.96 kg/Ha PPI, observed 13 days after treatment

SMILES | % Inhibition SHCA (Shattercane (SHCA); [5]) [%] | % Inhibition SHCA (Shattercane (SHCA); [6]) [%] | % Inhibition VELE (Velvetleaf (VELE) [1]; [5]) [%] | % Inhibition VELE (Velvetleaf (VELE) [1]; [6]) [%] | % Inhibition Corn (Corn [2]; [5]) [%] | % Inhibition Corn (Corn [2]; [6]) [%] | % Inhibition GIFT (Giant foxtail (GIFT); [7]) [%] | % Inhibition Corn (Corn [3]; [7]) [%] | % Inhibition VELE (Velvetleaf (VELE) [4]; [7]) [%] | % Inhibition SHCA (Shattercane (SHCA); [11]) [%] | % Inhibition SHCA (Shattercane (SHCA); [12]) [%] | % Inhibition VELE (Velvetleaf (VELE) [1]; [11]) [%] | % Inhibition VELE (Velvetleaf (VELE) [1]; [12]) [%] | % Inhibition Corn (Corn [2]; [11]) [%] | % Inhibition Corn (Corn [2]; [12]) [%] | % Inhibition GIFT (Giant foxtail (GIFT); in vivo) [%] | % Inhibition Corn (Corn [3]; in vivo) [%] | % Inhibition VELE (Velvetleaf (VELE) [4]; in vivo) [%] | also measured
CC(C)(C)OC(=O)COC1c2ccccc2CCc2ccccc21 [compound 45] | 85 | 25 | 80 | 70 | 65 | 65 | 75 | 70 | 90 | – | – | – | – | – | – | – | – | – | –
CC1(C)OC(c2cccs2)CN1C(=O)C(Cl)Cl (stereo not shown) [compound 22] | – | – | – | – | – | – | – | – | – | – | – | – | – | – | – | – | – | – | % Inhibition SHCA (Shattercane (SHCA); [8]): 65%; % Inhibition SHCA (Shattercane (SHCA); [9]): 25%; % Inhibition VELE (Velvetleaf (VELE) [1]; [8]): 85%; % Inhibition VELE (Velvetleaf (VELE) [1]; [9]): 75%; % Inhibition Corn (Corn [2]; [8]): 20%; % Inhibition Corn (Corn [2]; [9]): 40%; % Inhibition GIFT (Giant foxtail (GIFT); [10]): 70%; % Inhibition Corn (Corn [3]; [10]): 45%; % Inhibition VELE (Velvetleaf (VELE) [4]; [10]): 80%
Cc1csc(=NC(C)c2ccccc2)s1 (stereo not shown) [compound 69] | – | – | – | – | – | – | – | – | – | 75 | 40 | 80 | 70 | 30 | 50 | 70 | 35 | 90 | –
CCOC(=O)COC(c1c(C)cccc1C)c1c(C)cccc1C [compound 58] | 70 | 30 | 85 | 70 | 55 | 45 | 60 | 30 | 90 | – | – | – | – | – | – | – | – | – | –
CC1(C)OC(Cc2ccccc2)CN1C(=O)C(Cl)Cl (stereo not shown) [compound 34] | – | – | – | – | – | – | – | – | – | – | – | – | – | – | – | – | – | – | % Inhibition SHCA (Shattercane (SHCA); [8]): 70%; % Inhibition SHCA (Shattercane (SHCA); [9]): 25%; % Inhibition VELE (Velvetleaf (VELE) [1]; [8]): 85%; % Inhibition VELE (Velvetleaf (VELE) [1]; [9]): 70%; % Inhibition Corn (Corn [2]; [8]): 15%; % Inhibition Corn (Corn [2]; [9]): 35%; % Inhibition GIFT (Giant foxtail (GIFT); [10]): 75%; % Inhibition Corn (Corn [3]; [10]): 35%; % Inhibition VELE (Velvetleaf (VELE) [4]; [10]): 80%
O=C(C(Cl)Cl)N1CCCC12CCCC2 [compound 19] | – | 30 | – | 70 | – | 55 | 65 | 35 | 90 | – | – | – | – | – | – | – | – | – | % Inhibition SHCA (Shattercane (SHCA); [8]): 80%; % Inhibition SHCA (Shattercane (SHCA); [9]): 30%; % Inhibition VELE (Velvetleaf (VELE) [1]; [8]): 95%; % Inhibition VELE (Velvetleaf (VELE) [1]; [9]): 70%; % Inhibition Corn (Corn [2]; [8]): 20%; % Inhibition Corn (Corn [2]; [9]): 35%; % Inhibition GIFT (Giant foxtail (GIFT); [10]): 75%; % Inhibition Corn (Corn [3]; [10]): 55%; % Inhibition VELE (Velvetleaf (VELE) [4]; [10]): 80%
CCOC(=O)c1sc(Cl)nc1C(F)(F)F [compound 60] | – | – | – | – | – | – | – | – | – | 60 | 35 | 80 | 65 | 40 | 60 | 75 | 60 | 90 | –
O=C(COC(c1ccccc1)c1ccccc1)OCc1ccoc1 [compound 55] | 75 | 25 | 85 | 70 | 25 | 50 | 65 | 45 | 90 | – | – | – | – | – | – | – | – | – | –
CCCCCCOC(=O)c1sc(Cl)nc1C(F)(F)F [compound 62] | – | – | – | – | – | – | – | – | – | 65 | 30 | 80 | 60 | 30 | 55 | 75 | 65 | 95 | –
CC(Cl)C(=O)Nc1nc(C(F)(F)F)c(I)s1 (stereo not shown) [compound 72] | – | – | – | – | – | – | – | – | – | 75 | 30 | 85 | 70 | 70 | 60 | 75 | 75 | 90 | –
C#CCOC(=O)COC(c1ccccc1)c1ccccc1 [compound 54] | 70 | 20 | 90 | 65 | 30 | 55 | 60 | 55 | 90 | – | – | – | – | – | – | – | – | – | –
O=C(COC(c1ccccc1)c1cccc(C(F)(F)F)c1)OCC(F)(F)F (stereo not shown) [compound 53] | 80 | 25 | 85 | 70 | 50 | 50 | 70 | 60 | 100 | – | – | – | – | – | – | – | – | – | –
O=C(COC(c1ccccc1)c1ccccc1)Oc1ccccc1 [compound 50] | 75 | 25 | 80 | 70 | 20 | 45 | 70 | 60 | 95 | – | – | – | – | – | – | – | – | – | –
O=C(O)COC(c1ccccc1)c1cccc(C(F)(F)F)c1 (stereo not shown) [compound 49] | 70 | 30 | 90 | 80 | 45 | 70 | 65 | 55 | 100 | – | – | – | – | – | – | – | – | – | –
O=C(COC(c1ccccc1)c1ccccc1)Oc1cccc([N+](=O)[O-])c1 [compound 57] | 80 | 35 | 85 | – | 15 | 65 | 70 | 65 | 80 | – | – | – | – | – | – | – | – | – | –
O=C(Oc1ccccc1)c1sc(Cl)nc1C(F)(F)F [compound 64] | – | – | – | – | – | – | – | – | – | 65 | 35 | 75 | 70 | 20 | 60 | 70 | 60 | 90 | –
O=C(O)c1sc(Cl)nc1C(F)(F)F [compound 65] | – | – | – | – | – | – | – | – | – | 70 | 30 | 80 | 65 | 25 | 50 | 70 | 45 | 90 | –
COC(=O)ON=C(N)COc1cccc2cccnc12 [compound 76] | – | – | – | – | – | – | – | – | – | 65 | 30 | 80 | 70 | 55 | 55 | 70 | 65 | 90 | –
CCCSP(=O)(OCC)SCCC [Biocide No. 8, O-Ethyl-S,S-dipropyl phosphorothioate, reference compound] | – | – | – | – | – | – | – | – | – | – | – | – | – | – | – | – | – | – | % Inhibition SHCA (Shattercane (SHCA); [13]): 85%; % Inhibition VELE (Velvetleaf (VELE) [1]; [13]): 15%; corn injury (Corn [2]; MOCAP alone at 8.96 kg/ha, Example 51): corn stunting, leaf malformations and stand loss; % Inhibition Corn (Corn [2]; [13]): 30%; % Inhibition GIFT (Giant foxtail (GIFT); [14]): 90%; corn injury (Corn [3]; MOCAP applied alone, PPI, Example 52): significant corn injury; % Inhibition Corn (Corn [3]; [14]): 30%; % Inhibition VELE (Velvetleaf (VELE) [4]; [14]): 20%
C[n+]1cccc(C2CN(C(=O)C(Cl)Cl)C(C)(C)O2)c1 (stereo not shown) [compound 37] | – | – | – | – | – | – | – | – | – | – | – | – | – | – | – | – | – | – | % Inhibition SHCA (Shattercane (SHCA); [8]): 80%; % Inhibition SHCA (Shattercane (SHCA); [9]): 35%; % Inhibition VELE (Velvetleaf (VELE) [1]; [8]): 90%; % Inhibition VELE (Velvetleaf (VELE) [1]; [9]): 75%; % Inhibition Corn (Corn [2]; [8]): 65%; % Inhibition Corn (Corn [2]; [9]): 50%; % Inhibition GIFT (Giant foxtail (GIFT); [10]): 80%; % Inhibition Corn (Corn [3]; [10]): 60%; % Inhibition VELE (Velvetleaf (VELE) [4]; [10]): 85%
Cc1ccc(SC2(C#N)CC2)cc1C [compound 73] | – | – | – | – | – | – | – | – | – | 70 | 35 | 75 | 70 | 70 | 70 | 90 | 70 | 90 | –
O=C(COC(c1ccccc1)c1ccccc1)OCC(F)(F)F [compound 48] | 80 | 25 | 90 | 70 | 20 | 45 | 60 | 30 | 95 | – | – | – | – | – | – | – | – | – | –
CNC(=O)COC(c1ccccc1)c1ccccc1 [compound 42] | 75 | 30 | 90 | 70 | 70 | 60 | 70 | 75 | 90 | – | – | – | – | – | – | – | – | – | –
CCOC(=O)c1sc(I)nc1C(F)(F)F [compound 67] | – | – | – | – | – | – | – | – | – | 65 | 40 | 85 | 70 | 35 | 45 | 75 | 55 | 95 | –
CC1(C)OC(c2cccnc2)CN1C(=O)C(Cl)Cl (stereo not shown) [compound 27] | – | – | – | – | – | – | – | – | – | – | – | – | – | – | – | – | – | – | % Inhibition SHCA (Shattercane (SHCA); [8]): 75%; % Inhibition SHCA (Shattercane (SHCA); [9]): 30%; % Inhibition VELE (Velvetleaf (VELE) [1]; [8]): 85%; % Inhibition VELE (Velvetleaf (VELE) [1]; [9]): 75%; % Inhibition Corn (Corn [2]; [8]): 25%; % Inhibition Corn (Corn [2]; [9]): 30%; % Inhibition GIFT (Giant foxtail (GIFT); [10]): 75%; % Inhibition Corn (Corn [3]; [10]): 30%; % Inhibition VELE (Velvetleaf (VELE) [4]; [10]): 85%
